From a melting point compilation (Tetko et al.; mined from patent text by program, amines drawn as free bases though some values may be those of a salt) come the findings set out here.

Each structure is given as a SMILES string.

One may read the melting point as the temperature, or range, at which the solid turns liquid.

`CN(C)CCOc1cc(CCCOc2nn(Cc3ccccc3)cc2CC(=O)O)n(Cc2ccc(Cl)cc2Cl)n1`: the melting point was 78.3 to 80.8 °C.

On to `COc1cc(OCc2oc(=O)oc2C)c(C(=O)CCc2ccc3occc3c2)cc1C1OC(CO)C(O)C(O)C1O` (centres undefined), for which the melting point came to 128 °C.

In the case of `Cc1[nH]c(C=O)c2c1-c1ccc(Cl)cc1C(c1ccccc1Cl)=NC2`, the melting point is 274 to 276 °C.

`Cc1cc(-c2cc(C(F)(F)F)nn2-c2ccc(S(C)(=O)=O)cc2)ccc1-c1cscn1` gave a melting point of 140 to 142 °C.

Regarding `Cc1ccc(S(=O)(=O)N(C)c2ccc(Cl)cc2C(N)=O)cc1`, the melting point was in the range of 176 to 178 °C.

As to `CO[C@H]1CN(c2c(F)c(N)c3c(=O)c(C(=O)O)cn([C@@H]4C[C@@H]4F)c3c2C)C[C@@H]1C1(N)CC1`, the melting point fell in the range of 202 to 204 °C.

Consider `CS(=O)(=O)c1ccc(C(CC2CCCC2)C(=O)O)cc1Br` (centres undefined), for which the melting point was in the range of 149 to 150 °C.

`Fc1cccc(-c2ncc(-c3cnc(-c4cccnc4)[nH]3)cn2)c1`: the melting point turned out to be 309 °C.

Consider `CCOC(=O)c1ccc(OCC(O)CC)cc1` (centres undefined), for which the melting point fell in the range of 52 to 52.5 °C.

As to `Cc1csc2c1cc(C(=O)c1ccccc1)n2CC(=O)O`, the melting point was found to be 197 °C.

The compound `COc1cccc(C2(O)CCC(=O)CC2)c1` registered a melting point of 105 to 108 °C.

`O=P(O)(O)C(O)C(O)P(=O)(O)O` (centres undefined) returned a melting point of 209 to 211 °C.

Turning to `COC(=O)CSc1ccc(OC)cc1C(=O)OC`, the melting point was 55 to 57 °C.

`CCc1c(C(=O)NN2CCCCC2)nc(-c2ccccc2Cl)n1-c1ccc(Cl)cn1`: the melting point was 217 to 219 °C.

For `O=C(O)c1cccnc1C(=O)c1cccc(C(F)(F)F)c1`, the melting point lay in the range of 147 to 150 °C.

Take `CCc1c(Oc2cnc(N)nc2N)cc(C)c2sccc12`: the melting point is 181 °C.

For `COC[C@@H]1CC[C@H](c2ccc(F)cc2)N1S(=O)(=O)c1ccc(C)cc1` (racemic), the melting point is 152 °C.

`CNc1cc(N2CCN(C(=O)N3CCN(S(=O)(=O)c4ccc(Br)cc4)CC3)CC2)ncn1` came in with a melting point of 219 to 221 °C.

As to `CC(C)(C)OC(=O)Nc1cc(N2CCC(OC3CCCCO3)CC2)c(-c2ccc(F)cc2)cc1N` (racemic), the melting point was in the range of 157 to 161 °C.

Take `Cc1cc2c(cc1C)C(=O)C(=O)N2`: the melting point fell in the range of 217 to 218 °C.

Take `OCC1=CCN(Cc2ccccc2)CC1`: the melting point lay within 57 to 60 °C.

For `Cc1ccc(-c2ccc(C)c(C)n2)cc1`, the melting point amounted to 76 °C.

In turn, `c1ccc2c(c1)CCc1c-2noc1N1CCN(Cc2c[nH]c3ncccc23)CC1` had a melting point of 248 to 250 °C.

The compound `c1ccc(Cc2n[nH]c(NCCCCOc3cccc(CN4CCCCC4)c3)n2)cc1` had a melting point of 145 to 146 °C.

As for `Cc1ccc(CNC(=O)c2nc(N3CCOCC3)n(C)c(=O)c2O)cc1C`, the melting point was 164 to 166 °C.

`COc1ccc2c(c1)Sc1cc(N)ccc1N2C` registered a melting point of 142 to 143 °C.

`CCn1nc2c(N)nc3c(c2c1CCC1CCCCC1)CCCC3` came in with a melting point of 177 to 179 °C.

In turn, `N#CC(=NNCc1c(Cl)cc(C(F)(F)F)cc1Cl)c1ccc(C#N)cc1` displayed a melting point of 92 to 93 °C.

For the compound `CCOC(=O)/C=C/C(C)(C)NC(=O)OC(C)(C)C`, the melting point is 40 to 41 °C.

Compound `CCCCc1nc2ccccc2n1Cc1ccc(-c2ccccc2CO)cc1` came in with a melting point of 162 to 163 °C.

Take `COC(=O)c1ccc(OC2=C(Oc3ccc(C(=O)OC)cc3)C(F)(F)C(F)(F)C2(F)F)cc1`: the melting point was 67 °C.

For `CC1(C)OC(=O)Nc2ccc(-c3cccc(C#N)c3F)cc21`, the melting point is 192 to 198 °C.

Regarding `O=C1CCCc2cc(-c3ccccc3)ccc21`, the melting point was in the range of 99 to 100 °C.

Turning to `Oc1ccc(Nc2cnc3cc(Cl)ccc3c2)cc1`, the melting point is 218 °C.

As for `COc1ccc(N2CCC(=O)N(c3ccc(F)cc3)CC2)c(-c2ccc(N(C)C)cc2)n1`, the melting point lay within 130 to 139 °C.

In turn, `CC(C)(C)c1cc(SCCC(=O)NN)cc(C(C)(C)C)c1O` showed a melting point of 107 to 110 °C.

`COc1ccc(NC(C)=O)cc1F`: the melting point was found to be 120 °C.

The compound `O=C(C=CC=Cc1ccccc1)C=Cc1ccc([N+](=O)[O-])cc1` yielded a melting point of 168 to 170 °C.

For the compound `Nc1ncn(C2OC(CO)C(O)C2O)c2nc(=O)sc1-2` (centres undefined), the melting point was 132 to 134 °C.

In turn, `O=[N+]([O-])c1cccc(-c2coc3ccccc23)c1` had a melting point of 86 to 86.5 °C.

Compound `C(#Cc1cc2ccccc2s1)c1ccc(-c2ccccc2)s1` came in with a melting point of 185 to 186 °C.

As to `CCCc1nc2ccnn2c(OC)c1Cc1ccc(-c2ccccc2C#N)cc1`, the melting point stood at 110 °C.

In the case of `COc1ccc2c(c1)CCC1C2CCC2(C)C(O)C(N)CC12` (centres undefined), the melting point is 159 to 161 °C.

Take `CON1C(C)(C)CC(OC(=O)CCc2cc(-n3nc4ccccc4n3)c(O)c(C(C)(C)C)c2)CC1(C)C`: the melting point fell in the range of 135 to 137 °C.

The compound `Clc1ccccc1-c1cnc(-c2ccccc2Cl)nc1` returned a melting point of 112 °C.

The compound `CN1c2nnnn2-c2ccc(Cl)cc2C1c1ccccc1` (centres undefined) came in with a melting point of 280 °C.

Compound `CNC(=O)N1N=C(c2ccc(N)cc2)c2cc3c(cc2CC1CO)OCO3` (centres undefined) showed a melting point of 136 to 138 °C.

On to `O=C(CCCSc1nc[nH]n1)NC/C=C\COc1cc(CN2CCCCC2)ccn1`, for which the melting point was in the range of 87 to 89 °C.

Compound `Nc1cc(C(=O)Nc2ccncc2)ccc1OCC1CCCCC1` had a melting point of 193 to 194 °C.

`CS(=O)(=O)c1ccc(-c2[nH]c(Cl)cc2-c2ccc(F)cc2)cc1` showed a melting point of 206 to 208 °C.

On to `COc1cc2nc(SCc3cc(N(C)C)c(Cl)cn3)[nH]c2cc1OC`, for which the melting point fell in the range of 116 to 117 °C.

In the case of `Cc1cc(-c2ccc(-c3ccc(OCC4CO4)cc3)cc2)ccc1OCC1CO1` (centres undefined), the melting point amounted to 180 °C.

For the compound `CCOC(C)O[C@H]1C(=O)N(C(=S)Nc2ccccc2)[C@H]1c1ccccc1` (some centres undefined), the melting point lay in the range of 108 to 112 °C.

As to `COC(=O)c1ccc2c(c1)Sc1cc3c(cc1CC2)CCC3`, the melting point lay within 110 to 111 °C.

Consider `CC(C)C1CCC2(C(=O)O)CCC3(C)C(CCC4C5(C)CCC(O)C(C)(C)C5CCC43C)C12` (centres undefined), for which the melting point was 287 to 289 °C.

As for `CC(CCc1ccc(F)cc1)(Cn1ccnc1)Sc1cccc(Cl)c1Cl` (centres undefined), the melting point lay in the range of 131 to 132 °C.

As to `O=C(Nc1ccccc1)[NH+]([O-])Cc1ccncc1` (centres undefined), the melting point was 174 °C.

For the compound `COc1ccc(C(=O)c2coc3ccccc23)cc1`, the melting point fell in the range of 89 to 90 °C.

As for `OCc1nc2ccc(Cl)nc2[nH]1`, the melting point fell in the range of 224 to 226 °C.

Compound `CCON=C(C(C)=NOCc1ccccc1C(=COC)C(=O)OC)c1ccc(OC(C)c2ccc(Cl)cc2)cc1` (centres undefined) came in with a melting point of 107 to 109 °C.

Take `COc1ccccc1NC(=O)Nc1nc(Nc2ccccc2-c2ccccc2)nc(N(CC(=O)O)Cc2ccc(F)cc2)n1`: the melting point was in the range of 120 to 125 °C.

Regarding `CCCOc1ccccc1C1=NC(=O)C2=NC(C(F)(F)F)=NC2=N1`, the melting point is 255 to 260 °C.

`N#Cc1ccccc1C1=CC2CC(=O)CC2C1` (centres undefined): the melting point was 36 to 37 °C.

Compound `CCn1c(=O)c2c(N3CCN(C)CC3)cc(Cl)cc2n(Cc2ccccc2)c1=O` yielded a melting point of 155 to 159 °C.
